Source: ChEMBL document CHEMBL3045719, “Insecticidal and Neuroblocking Activities toward American Cockroach (Periplaneta americana L.) of Imidacloprid Metabolites, 5-Hydroxy-, 4,5-Dihydroxy- and 4,5-Dehydroimidacloprid” (J Pestic Sci, 2004)
The source made the active and inactive calls. The calls are words filed in the database; no cut-off is given here.

Experiments:
Periplaneta americana [1] = experiment: Insecticidal activity against adult form of Periplaneta americana (American cockroach) assessed as paralysis at 250 nmol injected into abdominal region measured after 1 to 32 hr; type: functional, organism-based
Periplaneta americana [2] = experiment: Insecticidal activity against adult form of Periplaneta americana (American cockroach) assessed as paralysis compound injected into abdominal region measured after 24 hr; type: functional
Periplaneta americana [3] = experiment: Insecticidal activity against adult form of Periplaneta americana (American cockroach) assessed as concentration required for neuroblock in excised central nerve cord; type: functional
Periplaneta americana [4] = experiment: Ratio of imidacloprid MLD to compound MLD for adult form of Periplaneta americana (American cockroach) assessed as paralysis compound injected into abdominal region measured after 24 hr; type: functional
Periplaneta americana [5] = experiment: Insecticidal activity against adult form of Periplaneta americana (American cockroach) assessed as paralysis at 8.4 nmol stored at 4 degC for 10 days injected into abdominal region measured after 3 hr; type: functional, organism-based
Periplaneta americana [6] = experiment: Insecticidal activity against adult form of Periplaneta americana (American cockroach) assessed as paralysis at 8.4 nmol injected into abdominal region measured after 8 hr; type: functional, organism-based
Periplaneta americana [7] = experiment: Insecticidal activity against adult form of Periplaneta americana (American cockroach) assessed as paralysis at 8.4 nmol injected into abdominal region measured after 1 hr; type: functional, organism-based
Periplaneta americana [8] = experiment: Insecticidal activity against adult form of Periplaneta americana (American cockroach) assessed as paralysis at 8.4 nmol injected into abdominal region measured after 3 hr; type: functional, organism-based
[9] = Lipophilicity, log P of the compound; type: physicochemical; settings: octanol/water
Periplaneta americana [10] = experiment: Insecticidal activity against adult form of Periplaneta americana (American cockroach) assessed as paralysis at 8.4 nmol stored at 4 degC for 10 days injected into abdominal region measured after 2 hr; type: functional, organism-based
Periplaneta americana [11] = experiment: Insecticidal activity against adult form of Periplaneta americana (American cockroach) assessed as paralysis at 8.4 nmol injected into abdominal region measured after 24 hr; type: functional, organism-based
Periplaneta americana [12] = experiment: Insecticidal activity against adult form of Periplaneta americana (American cockroach) assessed as paralysis at 8.4 nmol injected into abdominal region measured after 13 hr; type: functional, organism-based
Periplaneta americana [13] = experiment: Insecticidal activity against adult form of Periplaneta americana (American cockroach) assessed as paralysis at 8.4 nmol injected into abdominal region measured after 32 hr; type: functional, organism-based
Periplaneta americana [14] = experiment: Ratio of imidacloprid efficacy to compound efficacy adult form of Periplaneta americana (American cockroach) assessed as concentration required for neuroblock in excised central nerve cord; type: functional
Periplaneta americana [15] = experiment: Insecticidal activity against adult form of Periplaneta americana (American cockroach) assessed as paralysis at 8.4 nmol stored at 4 degC for 10 days injected into abdominal region measured after 1 hr; type: functional, organism-based
Periplaneta americana [16] = experiment: Insecticidal activity against adult form of Periplaneta americana (American cockroach) assessed as paralysis at 8.4 nmol injected into abdominal region measured after 2 hr; type: functional, organism-based
Periplaneta americana [17] = experiment: Insecticidal activity against adult form of Periplaneta americana (American cockroach) assessed as paralysis at 19 nmol injected into abdominal region measured after 24 hr; type: functional, organism-based
Aphis gossypii = experiment: Ratio of imidacloprid efficacy to compound efficacy for po dosed Aphis gossypii (cotton aphid); type: functional
Myzus persicae = experiment: Ratio of imidacloprid efficacy to compound efficacy for po dosed Myzus persicae (green peach aphid); type: functional
Periplaneta americana [18] = experiment: Insecticidal activity against adult form of Periplaneta americana (American cockroach) assessed as paralysis at 19 nmol injected into abdominal region measured after 13 hr; type: functional, organism-based
Periplaneta americana [19] = experiment: Insecticidal activity against adult form of Periplaneta americana (American cockroach) assessed as paralysis at 19 nmol injected into abdominal region measured after 2 hr; type: functional, organism-based
Periplaneta americana [20] = experiment: Insecticidal activity against adult form of Periplaneta americana (American cockroach) assessed as paralysis at 19 nmol injected into abdominal region measured after 1 hr; type: functional, organism-based
Periplaneta americana [21] = experiment: Insecticidal activity against adult form of Periplaneta americana (American cockroach) assessed as paralysis at 19 nmol injected into abdominal region measured after 8 hr; type: functional, organism-based
Bemisia tabaci = experiment: Ratio of imidacloprid efficacy to compound efficacy for po dosed Bemisia tabaci (sweet potato whitefly); type: functional
Periplaneta americana [22] = experiment: Insecticidal activity against adult form of Periplaneta americana (American cockroach) assessed as paralysis at 19 nmol injected into abdominal region measured after 3 hr; type: functional, organism-based
Periplaneta americana [23] = experiment: Insecticidal activity against adult form of Periplaneta americana (American cockroach) assessed as paralysis at 19 nmol injected into abdominal region measured after 32 hr; type: functional, organism-based
[24] = molecular target: T1, Nicotinic acetylcholine receptor alpha 5 subunit (Musca domestica) (UniProt A9XFY4); experiment: Binding affinity to nicotinic acetylcholine receptor in Musca domestica (house fly) head membrane relative to imidacloprid
T1 sequence (whole entry): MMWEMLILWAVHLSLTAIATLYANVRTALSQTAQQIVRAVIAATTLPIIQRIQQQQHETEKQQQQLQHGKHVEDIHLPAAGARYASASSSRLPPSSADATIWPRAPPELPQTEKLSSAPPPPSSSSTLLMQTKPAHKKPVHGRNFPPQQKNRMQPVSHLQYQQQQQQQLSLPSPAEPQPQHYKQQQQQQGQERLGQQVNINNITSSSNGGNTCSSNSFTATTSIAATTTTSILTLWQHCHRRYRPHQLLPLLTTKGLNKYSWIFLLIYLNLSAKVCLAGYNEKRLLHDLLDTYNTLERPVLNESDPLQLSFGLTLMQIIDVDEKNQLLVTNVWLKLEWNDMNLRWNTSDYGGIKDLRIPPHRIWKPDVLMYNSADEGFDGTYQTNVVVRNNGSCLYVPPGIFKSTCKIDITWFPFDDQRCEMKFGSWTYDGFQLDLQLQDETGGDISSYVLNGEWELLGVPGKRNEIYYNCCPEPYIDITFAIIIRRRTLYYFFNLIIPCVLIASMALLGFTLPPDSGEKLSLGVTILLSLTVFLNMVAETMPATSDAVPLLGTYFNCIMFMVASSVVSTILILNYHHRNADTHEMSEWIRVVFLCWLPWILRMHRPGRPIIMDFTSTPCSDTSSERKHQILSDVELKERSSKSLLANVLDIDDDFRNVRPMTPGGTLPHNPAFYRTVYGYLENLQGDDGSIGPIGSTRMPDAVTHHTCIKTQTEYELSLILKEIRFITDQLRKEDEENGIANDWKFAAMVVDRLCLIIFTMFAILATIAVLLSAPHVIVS

Periplaneta americana [25] = experiment: Insecticidal activity against adult form of Periplaneta americana (American cockroach) assessed as paralysis at 1.1 nmol injected into abdominal region measured after 32 hr; type: functional, organism-based
Periplaneta americana [26] = experiment: Insecticidal activity against adult form of Periplaneta americana (American cockroach) assessed as paralysis at 1.1 nmol injected into abdominal region measured after 24 hr; type: functional, organism-based
Periplaneta americana [27] = experiment: Insecticidal activity against adult form of Periplaneta americana (American cockroach) assessed as paralysis at 1.1 nmol injected into abdominal region measured after 3 hr; type: functional, organism-based
Periplaneta americana [28] = experiment: Insecticidal activity against adult form of Periplaneta americana (American cockroach) assessed as paralysis at 1.1 nmol injected into abdominal region measured after 8 hr; type: functional, organism-based
Periplaneta americana [29] = experiment: Insecticidal activity against adult form of Periplaneta americana (American cockroach) assessed as paralysis at 1.1 nmol injected into abdominal region measured after 13 hr; type: functional, organism-based
Periplaneta americana [30] = experiment: Insecticidal activity against adult form of Periplaneta americana (American cockroach) assessed as paralysis at 1.1 nmol injected into abdominal region measured after 2 hr; type: functional, organism-based
Periplaneta americana [31] = experiment: Insecticidal activity against adult form of Periplaneta americana (American cockroach) assessed as paralysis at 1.1 nmol injected into abdominal region measured after 1 hr; type: functional, organism-based
[32] = Half life in Apis mellifera (honey bee); type: ADME, organism-based; settings: in vivo

For `O=[N+]([O-])/N=C1\NC(O)C(O)N1Cc1ccc(Cl)nc1` (centres undefined) [4,5-DIHYDROXYIMIDACLOPRID], the Activity (Periplaneta americana [1]) was “inactive”, the MLD (Periplaneta americana [2]) was greater than 250 nmol and the Activity (Periplaneta americana [3]) was greater than 370 µM.
For `O=[N+]([O-])/N=C1\NCC(O)N1Cc1ccc(Cl)nc1` (centres undefined) [5-HYDROXYIMIDACLOPRID], the Ratio (Periplaneta americana [4]) was 10, the Activity (Periplaneta americana [5]) was “Active” and the Activity (Periplaneta americana [6]) was “Active”. The Activity (Periplaneta americana [7]) was “inactive”, the Activity (Periplaneta americana [8]) was “Active” and the logP [9] was 8. The MLD (Periplaneta americana [2]) was 11 nmol, the Activity (Periplaneta americana [3]) was 150 µM and the Activity (Periplaneta americana [10]) was “Active”. The Activity (Periplaneta americana [11]) was “Active”, the Activity (Periplaneta americana [12]) was “Active” and the Activity (Periplaneta americana [13]) was “inactive”. For the same compound, the Ratio (Periplaneta americana [14]) was 20, the Activity (Periplaneta americana [15]) was “Active” and the Activity (Periplaneta americana [16]) was “Active”.
With `O=[N+]([O-])Nc1nccn1Cc1ccc(Cl)nc1` [DEHYDROIMIDACLOPRID] the Ratio (Periplaneta americana [4]) was 10, the Activity (Periplaneta americana [17]) was “Active” and the Ratio (Aphis gossypii) was greater than 10. For the same compound, the Ratio (Myzus persicae) was greater than 10, the logP [9] was 0.45 and the MLD (Periplaneta americana [2]) was 19 nmol. The Activity (Periplaneta americana [3]) was 49 µM, the Activity (Periplaneta americana [18]) was “Active” and the Activity (Periplaneta americana [19]) was “Active”. The Activity (Periplaneta americana [20]) was “Active”, the Activity (Periplaneta americana [21]) was “Active” and the Ratio (Bemisia tabaci) was greater than 10. The Activity (Periplaneta americana [22]) was “Active”, the Activity (Periplaneta americana [23]) was “Active” and the Ratio (Periplaneta americana [14]) was 20. For the same compound, the Ratio [24] was 3.
In the case of `O=[N+]([O-])/N=C1\NCCN1Cc1ccc(Cl)nc1` [IMIDACLOPRID], the Activity (Periplaneta americana [25]) is reported as “inactive”, the Activity (Periplaneta americana [26]) is reported as “Active” and the Activity (Periplaneta americana [27]) is reported as “Active”. For the same compound, the MLD (Periplaneta americana [2]) was 1.1 nmol, the Activity (Periplaneta americana [3]) was 2.3 µM and the Activity (Periplaneta americana [28]) was “Active”. The Activity (Periplaneta americana [29]) was “Active”, the Activity (Periplaneta americana [30]) was “Active” and the Activity (Periplaneta americana [31]) was “Active”.
Compound `O=[N+]([O-])NC1=NCCN1Cc1ccc(Cl)nc1` [IMIDACLOPRID] has a half-life [32] of 4.5 h.
